Usually IC50 stands for the concentration that gives 50% inhibition.

Experiment [1] addresses T1, human recombinant ETA receptors (Homo sapiens, UniProt P25101).
T1 construct: expressed in transfected cells; host or cells: CHO cells (microsomal membranes)
T1 sequence (P25101 21-427): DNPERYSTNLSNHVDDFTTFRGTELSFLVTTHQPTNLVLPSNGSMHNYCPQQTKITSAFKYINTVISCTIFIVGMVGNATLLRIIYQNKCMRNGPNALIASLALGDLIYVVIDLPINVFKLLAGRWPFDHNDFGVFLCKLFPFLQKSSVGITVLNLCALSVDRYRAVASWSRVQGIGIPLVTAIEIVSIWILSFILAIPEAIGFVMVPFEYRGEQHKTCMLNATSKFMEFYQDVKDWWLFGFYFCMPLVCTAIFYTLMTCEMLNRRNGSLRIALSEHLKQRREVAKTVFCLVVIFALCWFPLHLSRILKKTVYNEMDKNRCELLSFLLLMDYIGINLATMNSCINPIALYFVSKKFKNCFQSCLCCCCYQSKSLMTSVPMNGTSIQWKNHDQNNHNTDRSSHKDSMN
The experiment can be described thus: Inhibition of [125I]ET-1 binding to membranes from CHO cells carrying human ETA receptors. The following applies: CHO cell membranes, 8 pM [125I]ET-1, 2 h at 20° C. On the procedure: (§1) 1) Inhibition of Endothelin Binding to Membranes from CHO Cells Carrying Human ET Receptors
(§2) For competition binding studies, membranes of CHO cells expressing human recombinant ETA or ETB receptors were used. Microsomal membranes from recombinant CHO cells were prepared and the binding assay made as previously described (Breu V., et al, FEBS Lett 1993; 334:210).
(§3) The assay was performed in 200 uL 50 mM Tris/HCl buffer, pH 7.4, including 25 mM MnCl2, 1 mM EDTA and 0.5% (w/v) BSA in polypropylene microtiter plates. […] After 2 h, the membranes were filtered on filterplates containing GF/C filters (Unifilterplates from Canberra Packard S.A. Zürich, Switzerland). To each well, 50 uL of scintillation cocktail was added (MicroScint 20, Canberra Packard S.A. Zürich, Switzerland) and the filter plates counted in a microplate counter (TopCount, Canberra Packard S.A. Zürich, Switzerland).
(§4) All the test compounds were dissolved, diluted and added in DMSO.

The target of experiment [2] is T2, human recombinant ETB receptors (Homo sapiens, UniProt P24530).
T2 construct: expressed in transfected cells; host or cells: CHO cells (microsomal membranes)
T2 sequence (P24530 27-442): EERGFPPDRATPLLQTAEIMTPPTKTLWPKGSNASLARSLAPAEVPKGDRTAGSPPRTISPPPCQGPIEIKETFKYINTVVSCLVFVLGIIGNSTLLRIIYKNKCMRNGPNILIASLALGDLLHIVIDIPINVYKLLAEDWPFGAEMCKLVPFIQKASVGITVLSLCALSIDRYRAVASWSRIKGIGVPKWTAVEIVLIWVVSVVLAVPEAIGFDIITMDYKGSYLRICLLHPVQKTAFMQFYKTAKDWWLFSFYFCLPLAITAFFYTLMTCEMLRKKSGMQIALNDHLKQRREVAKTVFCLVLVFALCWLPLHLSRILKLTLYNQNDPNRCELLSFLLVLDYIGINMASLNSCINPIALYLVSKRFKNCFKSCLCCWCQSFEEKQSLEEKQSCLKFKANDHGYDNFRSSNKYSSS
The experiment can be described thus: Inhibition of [125I]ET-1 binding to membranes from CHO cells carrying human ETB receptors. As to the method: as §1, §2, §3, §4

On to `Cc1ccc(-c2c(NS(=O)(=O)/C=C/c3ccccc3)ncnc2OCCOc2ncccn2)cc1` [Example 2, 2-phenyl-ethenesulfonic acid {6-[2-(pyrimidin-2-yloxy)-ethoxy]-5-p-tolyl-pyrimidin-4-yl}-amide], for which the figures for the IC50 in experiment [1] and in experiment [2] were 25.4 nM and 1830 nM, respectively.
For `Cc1ccc(-c2c(NS(=O)(=O)/C=C/c3ccccc3)ncnc2OCCOc2ccc(Br)cc2)cc1` [Example 3, 2-phenyl-ethenesulfonic acid {6-[2-(4-bromo-phenoxy)-ethoxy]-5-p-tolyl-pyrimidin-4-yl}-amide], in that order: 46.3 nM and 722 nM.
For `Cc1ccc(-c2c(NS(=O)(=O)/C=C/c3ccccc3)ncnc2OCCOc2cnccn2)cc1` [Example 4], in that order: 273 nM and 8600 nM.
In the same order, the values of `Cc1ccc(-c2c(NS(=O)(=O)/C=C/c3ccccc3)ncnc2OCCOc2ccc(C(F)(F)F)cn2)cc1` [Example 5, 2-Phenyl-ethenesulfonic acid {5-p-tolyl-6-[2-(5-trifluoromethyl-pyridin-2-yloxy)-ethoxy]-pyrimidin-4-yl}-amide] are 12.8 nM and 130 nM.
In the case of `Cc1ccc(-c2c(NS(=O)(=O)/C=C/c3ccccc3)ncnc2OCCOc2ccc(Cl)cc2)cc1` [Example 6], the values for the IC50 in experiment [1] and in experiment [2] were 82.4 nM and 1350 nM, respectively.
For `Cc1ccc(-c2c(NS(=O)(=O)/C=C/c3ccccc3)ncnc2OCCOc2ccc(Br)cn2)cc1` [Example 11], in that order: 18.5 nM and 264 nM.
In the same order, the values of `Cc1ccc(-c2c(NS(=O)(=O)/C=C/c3ccccc3)ncnc2OCCOc2nc3ccccc3o2)cc1` [Example 16] are 62.2 nM and 1130 nM.
In the same order, the values of `COc1cnc(OCCOc2ncnc(NS(=O)(=O)/C=C/c3ccccc3)c2-c2ccc(C)cc2)nc1` [Example 21] are 14.7 nM and 749 nM.
For the molecule `Cc1ccc(/C=C/S(=O)(=O)Nc2ncnc(OCCOc3ncc(Br)cn3)c2-c2ccc(C)cc2)cc1` [Example 23], the IC50 in experiment [1] was 8.2 nM; in experiment [2] it was 270 nM.
Turning to `Cc1ccc(/C=C/S(=O)(=O)Nc2ncnc(OCCOc3ncc(Cl)cn3)c2-c2ccc(C)cc2)cc1` [Example 24], the figures for the IC50 in experiment [1] and in experiment [2] were 21.7 nM and 657 nM, respectively.
For the molecule `Cc1ccc(-c2c(NS(=O)(=O)/C=C/c3ccc(Cl)cc3)ncnc2OCCOc2ncc(Br)cn2)cc1` [Example 27], the figures for the IC50 in experiment [1] and in experiment [2] were 11.5 nM and 193 nM, respectively.
Turning to `C/C(=C\c1ccccc1)S(=O)(=O)Nc1ncnc(OCCOc2ncc(Br)cn2)c1-c1ccc(C)cc1` [Example 30], the figures for the IC50 in experiment [1] and in experiment [2] were 41.8 nM and 9070 nM, respectively.
For `CCc1ccc(-c2c(NS(=O)(=O)/C=C/c3ccccc3)ncnc2OCCOc2ncc(Br)cn2)cc1` [Example 36], in that order: 20 nM and 3390 nM.
In the same order, the values of `Cc1ccc(-c2c(NS(=O)(=O)/C=C/c3ccccc3)ncnc2OCCOc2ncc(Br)cn2)cc1C` [Example 40] are 6.2 nM and 629 nM.
In the same order, the values of `Cc1ccc(-c2c(NS(=O)(=O)/C=C/c3cccc(C)c3)ncnc2OCCOc2ncc(Br)cn2)cc1` [Example 41] are 5.4 nM and 1780 nM.
In the case of `O=S(=O)(/C=C/c1ccccc1)Nc1ncnc(OCCOc2ccc(C(F)(F)F)cn2)c1-c1ccc(Cl)cc1` [Example 45], the values for the IC50 in experiment [1] and in experiment [2] were 19.3 nM and 332 nM, respectively.
For `O=S(=O)(/C=C/c1ccccc1)Nc1ncnc(OCCOc2ncc(Cl)cn2)c1-c1ccc(Cl)cc1` [Example 47], in that order: 7.04 nM and 752 nM.
Take `O=S(=O)(/C=C/c1ccccc1)Nc1ncnc(OCCOc2ncc(F)cn2)c1-c1ccc(Cl)cc1` [Example 50]: the IC50 in experiment [1] was determined as 31 nM; in experiment [2], 6890 nM.
For `CSc1cnc(OCCOc2ncnc(NS(=O)(=O)/C=C/c3ccccc3)c2-c2ccc(Cl)cc2)nc1` [Example 51], in that order: 4.56 nM and 173 nM.
As for `Cc1cccc(/C=C/S(=O)(=O)Nc2ncnc(OCCOc3ncc(Br)cn3)c2-c2ccc(Cl)cc2)c1` [Example 52], the IC50 in experiment [1] was 7.5 nM; in experiment [2] it was 1490 nM.
Consider `COc1cnc(OCCOc2ncnc(NS(=O)(=O)/C=C/c3cccc(C)c3)c2-c2ccc(Cl)cc2)nc1` [Example 53], for which the values for the IC50 in experiment [1] and in experiment [2] were 21 nM and 1360 nM, respectively.
For `O=S(=O)(/C=C/c1ccc(Cl)cc1)Nc1ncnc(OCCOc2ncc(Br)cn2)c1-c1ccc(Cl)cc1` [Example 54], in that order: 14 nM and 183 nM.
For `Cc1ccc(/C=C/S(=O)(=O)Nc2ncnc(OCCOc3ncc(Cl)cn3)c2-c2ccc(Cl)cc2)cc1` [Example 60], in that order: 30 nM and 558 nM.
For `C/C(=C\c1ccccc1)S(=O)(=O)Nc1ncnc(OCCOc2ncc(Br)cn2)c1-c1ccc(Cl)cc1` [Example 62], in that order: 58 nM and 4900 nM.
For the molecule `O=S(=O)(/C=C/c1ccccc1)Nc1nc(-c2ccncc2)nc(OCCOc2ncc(Br)cn2)c1-c1ccc(Cl)cc1` [Example 65], the IC50 stood at 17 nM in experiment [1] and 2520 nM in experiment [2].
For `Cc1ccc(-c2c(NS(=O)(=O)/C=C/c3cccs3)ncnc2OCCOc2ncc(Cl)cn2)cc1` [Example 69], in that order: 6 nM and 1650 nM.
In the same order, the values of `Cc1ccc(-c2c(NS(=O)(=O)/C=C/c3cccs3)ncnc2OCCOc2ccc(C(F)(F)F)cn2)cc1` [Example 70] are 16 nM and 258 nM.
For `Cc1ccc(-c2c(NS(=O)(=O)/C=C/c3cccs3)ncnc2OCCOc2ccc(Br)cn2)cc1` [Example 71], in that order: 17 nM and 507 nM.
For the molecule `Cc1ccc(-c2c(NS(=O)(=O)/C=C/c3cccs3)nc(-c3ncccn3)nc2OCCOc2ncc(Br)cn2)cc1` [Example 72], the IC50 in experiment [1] was 9 nM; in experiment [2], 2380 nM.
As to `Cc1ccc(-c2c(NS(=O)(=O)/C=C/c3cccs3)nc(-c3ncccn3)nc2OCCOc2ncc(Cl)cn2)cc1` [Example 73], the IC50 turned out to be 7.6 nM in experiment [1] and 4760 nM in experiment [2].
In the same order, the values of `COc1cnc(OCCOc2nc(-c3ncccn3)nc(NS(=O)(=O)/C=C/c3cccs3)c2-c2ccc(C)cc2)nc1` [Example 74] are 7.8 nM and 3530 nM.
Turning to `Cc1ccc(-c2c(NS(=O)(=O)/C=C/c3cccs3)nc(-c3ncccn3)nc2OCCOc2ncc(C)cn2)cc1` [Example 75], the figures for the IC50 in experiment [1] and in experiment [2] were 17.6 nM and greater than 10000 nM, respectively.
Regarding `COc1cnc(OCCOc2nc(-c3ccncc3)nc(NS(=O)(=O)/C=C/c3ccccc3)c2-c2ccc(C)cc2)nc1` [Example 83], the IC50 in experiment [1] amounted to 27.5 nM; in experiment [2] it was 7590 nM.
For `COc1cnc(OCCOc2ncnc(NS(=O)(=O)/C=C/c3ccccc3)c2-c2ccc(Br)cc2)nc1` [Example 86], in that order: 4.6 nM and 193 nM.
On to `O=S(=O)(/C=C/c1ccccc1)Nc1ncnc(OCCOc2ncc(Cl)cn2)c1-c1ccc(Br)cc1` [Example 87], for which the IC50 in experiment [1] is 3.9 nM; in experiment [2] it was 439 nM.
With `O=S(=O)(/C=C/c1cccs1)Nc1ncnc(OCCOc2ncc(Cl)cn2)c1-c1ccc(Br)cc1` [Example 89], the IC50 came out at 4.6 nM in experiment [1] and 1220 nM in experiment [2].
In the same order, the values of `COc1cnc(OCCOc2ncnc(NS(=O)(=O)/C=C/c3cccs3)c2-c2ccc(Br)cc2)nc1` [Example 90] are 4.3 nM and 336 nM.
In the case of `O=S(=O)(/C=C/c1ccccc1)Nc1ncnc(OCCOc2ncc(C(F)(F)F)cn2)c1-c1ccccc1` [Example 95], the results for the IC50 in experiment [1] and in experiment [2] were 33 nM and 8390 nM, respectively.
For `CSc1nc(NS(=O)(=O)/C=C/c2ccccc2)c(-c2ccccc2)c(OCCOc2ncc(Br)cn2)n1` [Example 101], in that order: 30.7 nM and 8680 nM.
Take `CS(=O)(=O)c1nc(NS(=O)(=O)/C=C/c2ccccc2)c(-c2ccccc2)c(OCCOc2ncc(Br)cn2)n1` [Example 107]: the figures for the IC50 in experiment [1] and in experiment [2] were 8.5 nM and 4640 nM, respectively.
